Where two headings read alike, the source gives them in different places.
Test system: E. multilocularis metacestodes
Experiment: PGI-assay: drug-induced damage on in vitro cultured metacestodes (Pathogen Box screening cascade and EC50)
Type: cell-based, Echinococcus multilocularis
Conditions: for PGI release, % of the Tx-100 control, 5d / PGI release, % of the Tx-100 control, 12d / cytotoxicity at 10 µM: 10 µM, singlets; for cytotoxicity at 10 µM: Echinococcus multilocularis
[1] = confirmatory screening at 10 µM in triplicates, 5 days of incubation, values as % of Tx-100 control
[2] = confirmatory screening at 10 µM in triplicates, 12 days of incubation, values as % of Tx-100 control
[3] = 120 h, 5 days of incubation, read-out: PGI release, % of the Tx-100 control, 5d
[4] = 288 h, 12 days of incubation, read-out: PGI release, % of the Tx-100 control, 12d

| Compound | PGI release, % of the Tx-100 control, 5d (5 days of incubation) [%] | PGI release, % of the Tx-100 control, 12d (12 days of incubation) [%] | further results |
| --- | --- | --- | --- |
| Cc1ccc(Oc2ccc(NC(=O)CNc3ccccc3N3CCCC3=O)cc2)cc1 [MMV020512] | 0.61 | 1.80 | – |
| Nc1ncnc2c1c(-c1cnc3ccccc3c1)nn2CC1CCNCC1 [MMV688411] | -0.63 | -1.19 | – |
| Cc1cc(NC(=O)c2ccc(Oc3ccc(Cl)cc3O)o2)no1 [MMV688955] | -0.20 | -3.41 | – |
| O=C(C1CCN(c2cc(-n3cccc3)ncn2)CC1)N1CCc2ccccc2C1 [MMV687172] | 1.69 | -1.50 | – |
| CCCCOC(=O)Nc1cc2[nH]c(C3CCCCC3)nc2cc1N1CCCC1 [MMV687730] | 5.43 | 56.57 | PGI release, % of Tx-100 control, average, 5d (1 µM, triplicates, 5 days of incubation): 3.65%; PGI release, % of Tx-100 control, average, 12d (1 µM, triplicates, 12 days of incubation): -3.14%; activity in the screen at 10 μM (confirmed in triplicates, >20% relative PGI release) (10 μM, 5 and 12 days): active; PGI release, % of Tx-100 control, average, 5d [1]: 22.60%; PGI release, % of Tx-100 control, average, 12d [2]: 45.66% |
| N#Cc1nc(-c2ccccc2F)oc1NCCc1ccccc1 [MMV676384] | 0.0223 | -0.18 | – |
| COc1cccc(OCC(=O)c2ccc(Br)cc2)c1 [MMV676379] | -3.68 | -3.36 | – |
| NS(=O)(=O)c1cncc(-c2ccc3nccc(-c4cn[nH]c4)c3n2)c1 [MMV024101] | 0.37 | 1.27 | – |
| CNCCC(Oc1ccc(C(F)(F)F)cc1)c1ccccc1 (centres unmarked) [MMV001561, Fluoxetine, reference compound] | – | – | cytotoxicity at 10 µM [3]: -1.25%; cytotoxicity at 10 µM [4]: -5.98% |
| CN1CCCN(C(c2ccccc2)c2ccc(Cl)cc2)CC1 (centres unmarked) [MMV004168] | -0.40 | 76.56 | PGI release, % of Tx-100 control, average, 5d [1]: -1.18%; PGI release, % of Tx-100 control, average, 12d [2]: 4.34% |
| FC(F)(F)c1nnc2ccc(Cl)nn12 [MMV069458] | -0.54 | 0.02 | – |
| COc1nc2ccc(Br)cc2cc1[C@@H](c1ccccc1)[C@@](O)(CCN(C)C)c1cccc2ccccc12 [MMV689758, Bedaquiline, reference compound] | – | – | cytotoxicity at 10 µM [3]: 2.07%; cytotoxicity at 10 µM [4]: -3.22% |
| CC(=O)Nc1ccc(-c2noc(CC3CCCN(Cc4cccc(F)c4C)C3)n2)cc1 (centres unmarked) [MMV689061] | 2.22 | 1.98 | – |
| COc1ccc2nc(C)cc(OCC(=O)NCc3ccccc3)c2c1 [MMV687189] | -4.79 | 3.07 | – |
| CC(C)=CCC/C(C)=C\CNCCNC1C2CC3CC(C2)CC1C3 (centres unmarked) [MMV687273] | 8.55 | 5.83 | – |
| Nc1ccc(C(=O)Nc2ccc(-c3nc4ccccc4o3)cc2)cc1 [MMV007920] | 0.08 | -0.69 | – |
| Cc1nn(C)cc1C(C)Nc1nncc(-c2ccc(C(F)(F)F)cc2)n1 (centres unmarked) [MMV019993] | -0.77 | -1.30 | – |
| Cc1cc(NCCc2ccccc2)nc(NC(=N)Nc2ccc(Cl)cc2)n1 [MMV021660] | 5.66 | 4.49 | – |
| c1ccc(Oc2ccc(-c3cncc(-c4ccc5[nH]ccc5c4)n3)cc2)cc1 [MMV688178] | 0.34 | 0.47 | – |
| CCc1ccc([C@@H]2C[C@H](C(F)(F)F)n3ncc(C(=O)NCc4ccc(OC)cc4)c3N2)cc1 [MMV687180] | -2.14 | -5.92 | – |

| Compound | PGI release, % of the Tx-100 control, 5d (5 days of incubation) [%] | PGI release, % of the Tx-100 control, 12d (12 days of incubation) [%] | further results |
| --- | --- | --- | --- |
| CCCCS(=O)(=O)Nc1ccc2cnn(C)c2c1 [MMV687145] | -0.86 | -2.20 | – |
| COc1ccc(N(CCc2cccc(C)n2)C(=O)C2CCCCC2)cc1 [MMV675996] | 0.13 | -0.16 | – |
| CCN(CC)S(=O)(=O)c1ccc(Cl)c(C(=O)Nc2ccc3nc(C)sc3c2)c1 [MMV019721] | -0.43 | -1.86 | – |
| CCOc1ccccc1C(=O)Nc1cccc(-c2nc3ncccn3c2C)c1 [MMV019790] | -1.05 | 53.36 | PGI release, % of Tx-100 control, average, 5d [1]: -1.68%; PGI release, % of Tx-100 control, average, 12d [2]: -2.24% |
| C[C@]1(COc2ccc(N3CCC(Oc4ccc(OC(F)(F)F)cc4)CC3)cc2)Cn2cc([N+](=O)[O-])nc2O1 [MMV688262, Delaminid, reference compound] | -3.74 | -0.38 | – |
| O=C(NC1CC1)c1ccc(CSCc2ccccc2Cl)o1 [MMV007803] | -0.54 | -0.13 | – |
| Cc1cc(C(=O)Nc2ccc(-c3ccccc3)cc2)no1 [MMV020152] | 0.07 | -0.81 | – |
| COc1cc(C(F)(F)F)nc2ccc(C)c(N)c12 [MMV047015] | -0.69 | -0.79 | – |
| O=C(Nc1nc(-c2ccccn2)cs1)c1cncn1-c1ccccc1 [MMV676512] | 0.19 | 0.30 | – |
| CNc1cc(C)nc(C2CN(C(=O)c3n[nH]c4ccccc34)CCO2)c1 (centres unmarked) [MMV689709] | -5.26 | 58.81 | PGI release, % of Tx-100 control, average, 5d [1]: -0.32%; PGI release, % of Tx-100 control, average, 12d [2]: -0.96% |
| CC(C)C(Oc1cccc2ccccc12)C(=O)O (centres unmarked) [MMV676191] | -0.44 | -4.34 | – |
| COc1cc(C2=NCCN2)ccc1-n1cc(-c2cccc(C3=NCCN3)c2)nn1 [MMV688474] | -0.50 | -0.97 | – |
| CCc1ccc(C(NCc2nc(N)nc(N(C)C)n2)C(C)C)cc1 (centres unmarked) [MMV1019989] | 0.39 | -3.04 | – |
| CC(=O)NCC1CN(c2ccc(-c3ccc(CO)cc3)c(F)c2)C(=O)O1 (centres unmarked) [MMV688508] | -0.03 | -1.49 | – |
| COc1cc(C2=NCCN2)ccc1-c1cn(-c2cccc(C3=NCCN3)c2)nn1 [MMV688407] | 1.48 | 1.29 | – |
| CC(=O)N1CCc2cc3nc(C)cc(C)c3cc21 [MMV054312] | 0.77 | -0.65 | – |
| Cc1cc(C)c2cc(C(=O)NC3CCCCCCC3)[nH]c2c1 [MMV687146] | -4.26 | -3.34 | – |
| O=C(Nc1cccnc1)c1c(O)c2cccc3c2n(c1=O)CC3 [MMV676395] | -2.29 | 0.06 | – |
| c1ccc(Oc2ccc(-c3cc(N4CCOCC4)n[nH]3)cc2)cc1 [MMV045105] | -0.42 | 0.07 | – |

From publication PMC6216040, “Repurposing of an old drug: In vitro and in vivo efficacies of buparvaquone against Echinococcus multilocularis” (International Journal for Parasitology: Drugs and Drug …, 2018)
